{
  "source": "patent US3962321A",
  "about": "“Enhancement of coffee flavor” (General Foods Corporation, priority 1973, dated 1976)",
  "key": {"[1]": {"test": "Expert taster flavor and aroma levels (threshold, recognition, fatty flavor) in regular or soluble coffee brew", "conditions": "about 1 to 1.5% coffee solids brew; for Recognition Level: woody note", "source_text": "The threshold level is that quantity of flavoring producing a change in cup flavor and aroma, but a change which cannot be described as a particular flavor. The recognition level is the quantity of flavoring which can be defined as imparting a woody note to the brew. The fatty level is that point where the undesirable fatty flavor becomes apparent and detracts from the woody character of the flavoring noted at lower levels."}, "[2]": {"test": "General flavor characterization by flavor experts", "conditions": "50 ppm or higher"}, "[3]": {"test": "Taste comparison in instant Maxwell House coffee beverage (Example XI)", "conditions": "for Taste comparison with control: 1.35% coffee solids (Example XIA)", "source_text": "A. A taste comparison was made of instant Maxwell House brand coffee beverage containing 1.35% coffee solids enhanced with 1 ppb and 2 ppb trans-2-nonenal.\nB. Example XIA was repeated employing a broader range of flavor enhancement."}, "[4]": {"test": "Taste comparison in spray dried instant Maxwell House coffee containing synthetic winey, buttery flavor (Example XII)", "conditions": "2 ppb; 1.35% coffee solids brew", "source_text": "Spray dried instant Maxwell House brand coffee containing a synthetic, winey, buttery flavor was compared to an identical sample containing an additional 2ppb trans-2-nonenal."}, "[5]": {"test": "Taste comparison in freeze dried Maxim soluble coffee (Example XIII)"}, "[6]": {"test": "Taste comparison in freeze dried Maxim soluble coffee with steam generated aroma (Example XIV)", "conditions": "2 ppb"}, "[7]": {"test": "Flavor evaluation in water and soluble coffee (Example XVI)", "source_text": "A ten percent ethanolic solution of trans-2-nonenal (Compagnie Parento, Croton-on-Hudson, New York) was passed through a Perkin-Elmer model 900 gas chromatography unit having a 6-foot by 1/8 inch column packed with 10% diethylene glycol succinate polyester on 80/90 Anakrom ABS."}, "[8]": {"test": "Expert panel flavor evaluation in instant Maxwell House coffee (Example XVII)", "conditions": "two parts per billion; 1.35% coffee solids", "source_text": "An expert panel flavor evaluation was made of trans-2-nonenal, purified as in Example XVI, at a level of two parts per billion in instant Maxwell House brand soluble coffee at a 1.35% coffee solids concentration."}, "[9]": {"test": "Flavor comparison in Sanka decaffeinated soluble coffee (Example XVIII)", "conditions": "2 ppb"}, "[10]": {"test": "Flavor evaluation of retention on freeze drying of coffee extract (Example XX)", "assay_type": "physicochemical", "conditions": "theoretical 2 ppb", "description": "Trans-2-nonenal (5 mg in one ml of ethanol) is added to 500 ml of distilled water and the aqueous mixture poured into 52 pounds of coffee extract of 28.2% coffee solids. The coffee-nonenal mixture is stirred and then poured into trays and frozen to form 3/8 inch thick slabs. Control slabs are also prepared from the same extract without the addition of flavors.\nThe slabs are freeze dried in a 50 square foot Stokes Freeze Drier under 150 microns pressure. […] Condenser temperature is maintained at -40°F.\nA flavor evaluation is made by dissolving 0.65 gms of trans-2-nonenal aromatized freeze dried coffee and 2.60 gms of freeze dried control in eight bunces of hot water to give a theoretical 2 ppb concentration. Control cups are prepared by dissolving 3.25 gms of freeze dried control coffee in eight ounces of hot water and adding thereto 10 microliters of a 5 ml aqueous solution containing 0.25 mg trans-2-nonenal to give a 2 ppb concentration."}, "[11]": {"test": "Triangular odd cup flavor evaluation of retention on spray drying of coffee extract (Example XXI)", "assay_type": "physicochemical", "description": "To 500 ml of distilled water is added 2.34 mg of trans-2-nonenal dissolved in 1 ml of ethanol. The aqueous mix is added to 40 pounds of coffee extract (24.5% solids) and the mixture is spray dried.\nUnaromatized extract is spray dried umder equivalent conditions for use as a control. A flavor evaluation is made by dissolving 3.25 g of the aromatized coffee in eight ounces of hot water. Control cups are prepared by dissolving in each cup 3.25 g of control coffee in eight ounces of hot water and then adding thereto 10 microliters of a solution of 0.24 mg trans-2-nonenal in 5 ml of water."}, "[12]": {"test": "Flavor comparison in 100% Robusta spray dried soluble coffee (Example XXIV)", "conditions": "2 ppb"}, "[13]": {"test": "Evaluation in various foodstuffs versus control (Example XXV)", "description": "To various foodstuffs is added minute amounts of the enhancing compounds of this invention at the proportions indicated. The foodstuffs are then evaluated by comparison to a control not containing the enhancer."}, "[14]": {"test": "Taste comparison in instant Postum beverage (Example XXVI)", "description": "A solution of trans-2-nonenal was prepared by dissolving 20 mg of the aldehyde in 50 ml of ethanol. One half of a milliliter of the resulting solution was then dissolved in 50 ml of spring water to yield a 0.2 mg/50 ml solution. The spring water solution was employed to prepare enhanced instant Postum by adding a sufficient amount to two grams of Postum dissolved in 200 ml of boiling spring water to give 5, 10, 20, and 30 ppb concentrations of nonenal in the hot Postum beverage. These beverages were compared with a control of 2 grams Postum dissolved in 200 ml boiling spring water by several expert tasters."}, "[15]": {"test": "Flavor effect in whisky and carbonated and non-carbonated beverages"}},
  "note": "Entries after “also recorded” stand apart in the source; their conditions may differ.",
  "data": [
    {"smiles": "CCCCCC/C=C/COC(C)=O", "note": "[trans-2-nonenylacetate, Trans-2-nonenyl acetate]", "values": [
      {"measurement": "Threshold Level", "setting": "[1]", "result": 100, "unit": "ppb"},
      {"measurement": "Undesired Fatty Flavor Becoming Apparent", "setting": "[1]", "result": 1500, "unit": "ppb"},
      {"measurement": "Recognition Level", "setting": "[1]", "result": 200, "unit": "ppb"}
    ]},
    {"smiles": "CCCCCC/C=C/C(OC)OC", "note": "[trans-2-nonene dimethyl Acetal, trans-2-nonene dimethyl acetal]", "values": [
      {"measurement": "Threshold Level", "setting": "[1]", "result": 0.03, "unit": "ppb"},
      {"measurement": "Undesired Fatty Flavor Becoming Apparent", "setting": "[1]", "result": 800, "unit": "ppb"},
      {"measurement": "Recognition Level", "setting": "[1]", "result": 0.08, "unit": "ppb"}
    ]},
    {"smiles": "CCCCCC/C=C/C(OCC)OCC", "note": "[trans-2-nonene diethyl acetal]", "values": [
      {"measurement": "Threshold Level", "setting": "[1]", "result": 0.02, "unit": "ppb"},
      {"measurement": "Undesired Fatty Flavor Becoming Apparent", "setting": "[1]", "result": 1200, "unit": "ppb"},
      {"measurement": "Recognition Level", "setting": "[1]", "result": 0.03, "unit": "ppb"}
    ]},
    {"smiles": "CCCCCC/C=C/C=O", "note": "[trans-2-nonenal]", "values": [
      {"measurement": "Threshold Level", "setting": "[1]", "result": "0.05-0.2 ppb"},
      {"measurement": "Undesired Fatty Flavor Becoming Apparent", "setting": "[1]", "result": 16, "unit": "ppb"},
      {"measurement": "Recognition Level", "setting": "[1]", "result": "0.4-0.6 ppb"},
      {"measurement": "Flavor when tasted at conventional flavor concentrations", "setting": "[2]", "result": "unpleasant, rancid fat flavor"},
      {"measurement": "Flavor Comments", "setting": "[3]; 0.2 ppb in the brew", "result": "detectable subtle flavor"},
      {"measurement": "Flavor Comments", "setting": "[3]; 0.4 ppb in the brew", "result": "subtle recognition of woodiness"},
      {"measurement": "Flavor Comments", "setting": "[3]; 0.6 ppb in the brew", "result": "definite recognition of woodiness"},
      {"measurement": "Flavor Comments", "setting": "[3]; 1 ppb in the brew", "result": "woody and smoother"},
      {"measurement": "Taste comparison with control", "setting": "[3]; 1 ppb", "result": "did not give a detectable woody flavor, but did balance or blend the coffee flavor and masked the caramel and acid flavor of the control"},
      {"measurement": "Flavor Comments", "setting": "[3]; 2 ppb in the brew", "result": "woody and groundsy"},
      {"measurement": "Taste comparison with control", "setting": "[3]; 2 ppb", "result": "improved woody regular coffee flavor and lacked the typical caramel and acid notes of the control"},
      {"measurement": "Flavor Comments", "setting": "[3]; 8 ppb in the brew", "result": "high woody impact"},
      {"measurement": "Flavor Comments", "setting": "[3]; 16 ppb in the brew", "result": "tallowy flavor"},
      {"measurement": "Flavor Comments", "setting": "[3]; 30 ppb in the brew", "result": "burnt, fatty"},
      {"measurement": "Flavor Comments", "setting": "[3]; 40 ppb in the brew", "result": "burnt, fatty and rancid"},
      {"measurement": "Flavor comparison with identical sample without additive", "setting": "[4]", "result": "very desirable balanced flavor, having prominent winey, buttery and woody regular coffee notes"},
      {"measurement": "Taste comparison with control", "setting": "[5]; 1 ppb", "result": "while woodiness was not evident, there was an improved balanced cup flavor and a reduction in sourness"},
      {"measurement": "Taste comparison with control", "setting": "[5]; 2 ppb", "result": "improved woody regular coffee note. In addition, the typically winey and buttery notes of the coffee were better balanced and the typical sourness of the brew was masked"},
      {"measurement": "Flavor comparison with control", "setting": "[6]", "result": "very good regular coffee flavor, the brew having improved cup flavor and lacking sourness when compared to the control"},
      {"measurement": "Flavor in water", "setting": "[7]; 2 ppb and 20 ppb in water", "result": "regular coffee flavor characterized by experts as woody or spent grounds"},
      {"measurement": "Concentration at which expert tasters find undesirable flavors", "setting": "[7]; not apparent to less skilled tasters", "result": "about 16 ppm"},
      {"measurement": "Expert panel flavor evaluation", "setting": "[8]", "result": "slight spent grounds flavor which improved the regular brewed character of the coffee; also recorded: desirable blending or mixing of flavor and a secondary aromatic flavor similar to that produced by the addition of steam generated aroma"},
      {"measurement": "Flavor comparison with control", "setting": "[9]", "result": "improved woody flavor and good balance of cup flavor and aroma"},
      {"measurement": "Loss of aroma during freeze drying", "setting": "[10]", "result": "slight loss of trans-2-nonenal aroma during freeze drying"},
      {"measurement": "Woody flavor of freeze dried aromatized sample relative to control", "setting": "[10]; after freeze drying", "result": "about ninety"},
      {"measurement": "Loss during spray drying", "setting": "[11]", "result": "no significant loss of trans-2-nonenal during spray drying"},
      {"measurement": "Difference between aromatized and control cups", "setting": "[11]; triangular, odd cup flavor evaluation", "result": "no difference between the cups"},
      {"measurement": "Flavor comparison with control", "setting": "[12]", "result": "improved woody cup flavor and aroma"},
      {"measurement": "Evaluation", "setting": "[13]; Ex. 1 Cola beverage, 2 ppb", "result": "Woody"},
      {"measurement": "Evaluation", "setting": "[13]; Ex. 2 Pear nectar, 1 ppb", "result": "Increased pear flavor"},
      {"measurement": "Evaluation", "setting": "[13]; Ex. 3 Ginger ale, 2 ppb", "result": "Woody"},
      {"measurement": "Evaluation", "setting": "[13]; Ex. 5 Cranberry juice, 2 ppb", "result": "Woody"},
      {"measurement": "Evaluation", "setting": "[13]; Ex. 7 Condensed beef broth, 2 ppb", "result": "High woody"},
      {"measurement": "Evaluation", "setting": "[13]; Ex. 8 Root Beer beverage, 1 ppb", "result": "Enhanced flavor"},
      {"measurement": "Evaluation", "setting": "[13]; Ex. 8 Root Beer beverage, 2 ppb", "result": "High woody"},
      {"measurement": "Evaluation", "setting": "[13]; Ex. 9 Creme Soda, 2 ppb", "result": "High woody"},
      {"measurement": "Evaluation", "setting": "[13]; Ex. 11 Cherry gelatin dessert, 2 ppb", "result": "Woody"},
      {"measurement": "Evaluation", "setting": "[13]; Ex. 12 Artificially sweetened cola beverage, 2 ppb", "result": "Woody"},
      {"measurement": "Evaluation", "setting": "[13]; Ex. 13 Meat broth, 1 ppb", "result": "Higher flavor impact"},
      {"measurement": "Effect on molasses flavor and woody flavor of Postum", "setting": "[14]", "result": "reduced appreciably the characteristic molasses flavor of Postum and imparted a slight woody flavor"},
      {"measurement": "Effect on sweet, cereal taste of Postum", "setting": "[14]", "result": "significant reduction in the sweet, cereal taste of the beverage"},
      {"measurement": "Taste preference", "setting": "[14]; 5 ppb and 10 ppb", "result": "preferred"},
      {"measurement": "Flavor in beverages", "setting": "[15]", "result": "low level woody note not detectable as coffee flavor which enhances the basic flavor of the beverage"}
    ]},
    {"smiles": "CCCCCC/C=C\\COC(C)=O", "note": "[cis-2-nonenyl acetate]", "values": [
      {"measurement": "Threshold Level", "setting": "[1]", "result": 50, "unit": "ppb"},
      {"measurement": "Undesired Fatty Flavor Becoming Apparent", "setting": "[1]", "result": 1500, "unit": "ppb"},
      {"measurement": "Recognition Level", "setting": "[1]", "result": 150, "unit": "ppb"}
    ]},
    {"smiles": "CCCCCC/C=C/C1OCCO1", "note": "[1-Octenyl-1-dioxolane, trans-1-octenyl-2-dioxolane]", "values": [
      {"measurement": "Threshold Level", "setting": "[1]", "result": 0.3, "unit": "ppb"},
      {"measurement": "Undesired Fatty Flavor Becoming Apparent", "setting": "[1]", "result": 1000, "unit": "ppb"},
      {"measurement": "Recognition Level", "setting": "[1]", "result": 0.8, "unit": "ppb"}
    ]}
  ]
}
